Assay results from patent US20220031800A1, “PEPTIDES FOR TREATING NON-EXUDATIVE MACULAR DEGENERATION AND OTHER DISORDERS OF THE EYE” (Allegro Pharmaceuticals, LLC, priority 2019, published 2022).
Square brackets hold non-standard residues; d marks the D form. Peptide text beside a SMILES is read from it. Cya = N[C@@H](CS(=O)(=O)O)C(=O)O

System: study eye of subjects with intermediate non-exudative AMD
Assay: SD-OCT Analysis 1 (thickness and volume of retinal layers, EZ defect area, GA)
Assay type: in vivo, human
Description: Numerous study assessments were conducted at various time points throughout the study. Included among these study assessments were; refractive eye examinations, determinations of BCVA AND low-luminance BCVA, Lanthony D-15 color vision test, measurement of intraocular pressure (IOP), Indirect ophthalmoscopy/dilated fundus examinations and spectral-domain optical coherence tomography (SD-OCT). Also, blood and saliva samples were obtained from each subject for genetic analysis. The above-listed study assessments were performed at the time points indicated in Table 1, below: The OCT scans were analyzed by two (2) unrelated experts. The mean thickness and mean volume of retinal subfields and layer segments were analyzed at screening (pre-treatment) and at Week 12 for Group 1 subjects and at Week 32 for Group 2 subjects. In addition to the quantitative analysis of OCT images, a qualitative assessment of the OCT images at baseline (pre-treatment) was performed to identify GA anywhere in the retina, in the fovea (1-mm central subfield), and in the foveal center. Quantitative analysis of the OCT images was also performed to measure changes in anatomical measurements over time.

[1] = baseline to Week 32, nonresponder eyes n = 12
[2] = baseline to Week 32, responder eyes n = 10
[3] = baseline to Week 32, responder vs nonresponder eyes
[4] = baseline to Week 32, risuteganib arm n = 22
[5] = risuteganib arm (Week 32) vs sham arm (Week 12)

C[C@@H](O)[C@H](NC(=O)[C@H](CS(=O)(=O)O)NC(=O)CNC(=O)[C@H](CCCNC(=N)N)NC(=O)CN)C(=O)N1CCC[C@H]1C(=O)O [risuteganib, Glycyl-L-arginylglycyl-3-sulfo-L-alanyl-L-threonyl-L-proline] (H-GRG[Cya]TP-OH)
Change in EZ defect area [1]: 0.014 mm^2 | Mean change in mean thickness: Inner retina, central subfield [1]: −2.250 μm | Mean change in mean thickness: Inner retina, foveal center [1]: 9.917 μm | Mean change in mean thickness: Outer retina, central subfield [1]: −5.417 μm | Mean change in mean thickness: Outer retina, foveal center [1]: −17.833 μm | Mean change in mean thickness: Photoreceptor, central subfield [1]: −1.333 μm | Mean change in mean thickness: Photoreceptor, foveal center [1]: 3.833 μm | Mean change in mean thickness: RPEDC, central subfield [1]: 1.083 μm | Mean change in mean thickness: RPEDC, foveal center [1]: −2.250 μm | Mean change in total volume: Inner retina, central subfield [1]: −0.002 mm^3 | Mean change in total volume: Outer retina, central subfield [1]: −0.004 mm^3 | Mean change in total volume: Photoreceptor, central subfield [1]: −0.001 mm^3 | Mean change in total volume: RPEDC, central subfield [1]: 0.001 mm^3 | Change in EZ defect area [2]: 0.020 mm^2 | Mean change in mean thickness: Inner retina, central subfield [2]: 5.200 μm | Mean change in mean thickness: Inner retina, foveal center [2]: 8.400 μm | Mean change in mean thickness: Outer retina, central subfield [2]: −2.400 μm | Mean change in mean thickness: Outer retina, foveal center [2]: −8.000 μm | Mean change in mean thickness: Photoreceptor, central subfield [2]: −1.000 μm | Mean change in mean thickness: Photoreceptor, foveal center [2]: 3.100 μm | Mean change in mean thickness: RPEDC, central subfield [2]: −9.800 μm | Mean change in mean thickness: RPEDC, foveal center [2]: −8.100 μm | Mean change in total volume: Inner retina, central subfield [2]: 0.004 mm^3 | Mean change in total volume: Outer retina, central subfield [2]: −0.002 mm^3 | Mean change in total volume: Photoreceptor, central subfield [2]: −0.001 mm^3 | Mean change in total volume: RPEDC, central subfield [2]: −0.008 mm^3 | Change in EZ defect area, Difference [3]: 0.006 mm^2 | Mean change in mean thickness: Inner retina, central subfield, Difference [3]: 7.450 μm | Mean change in mean thickness: Inner retina, foveal center, Difference [3]: −1.517 μm | Mean change in mean thickness: Outer retina, central subfield, Difference [3]: 3.017 μm | Mean change in mean thickness: Outer retina, foveal center, Difference [3]: 9.833 μm | Mean change in mean thickness: Photoreceptor, central subfield, Difference [3]: 0.333 μm | Mean change in mean thickness: Photoreceptor, foveal center, Difference [3]: −0.733 μm | Mean change in mean thickness: RPEDC, central subfield, Difference [3]: −10.883 μm | Mean change in mean thickness: RPEDC, foveal center, Difference [3]: −5.850 μm | Mean change in total volume: Inner retina, central subfield, Difference [3]: 0.006 mm^3 | Mean change in total volume: Outer retina, central subfield, Difference [3]: 0.003 mm^3 | Mean change in total volume: Photoreceptor, central subfield, Difference [3]: 0.000 mm^3 | Mean change in total volume: RPEDC, central subfield, Difference [3]: −0.009 mm^3 | Change in EZ defect area [4]: 0.015 mm^2 | Mean change in mean thickness: Inner retina, central subfield [4]: 1.565 μm | Mean change in mean thickness: Inner retina, foveal center [4]: 6.696 μm | Mean change in mean thickness: Inner retina, inferior subfield [4]: −0.065 μm | Mean change in mean thickness: Inner retina, nasal subfield [4]: −0.783 μm | Mean change in mean thickness: Inner retina, superior subfield [4]: −3.022 μm | Mean change in mean thickness: Inner retina, temporal subfield [4]: 0.217 μm | Mean change in mean thickness: Outer retina, central subfield [4]: −3.978 μm | Mean change in mean thickness: Outer retina, foveal center [4]: −9.543 μm | Mean change in mean thickness: Outer retina, inferior subfield [4]: −2.457 μm | Mean change in mean thickness: Outer retina, nasal subfield [4]: −1.196 μm | Mean change in mean thickness: Outer retina, superior subfield [4]: −0.065 μm | Mean change in mean thickness: Outer retina, temporal subfield [4]: −2.283 μm | Mean change in mean thickness: Photoreceptor, central subfield [4]: −1.087 μm | Mean change in mean thickness: Photoreceptor, foveal center [4]: 1.717 μm | Mean change in mean thickness: Photoreceptor, inferior subfield [4]: −0.239 μm | Mean change in mean thickness: Photoreceptor, nasal subfield [4]: −0.087 μm | Mean change in mean thickness: Photoreceptor, superior subfield [4]: 0.130 μm | Mean change in mean thickness: Photoreceptor, temporal subfield [4]: −0.152 μm | Mean change in mean thickness: RPEDC, central subfield [4]: −1.500 μm | Mean change in mean thickness: RPEDC, foveal center [4]: −1.652 μm | Mean change in mean thickness: RPEDC, inferior subfield [4]: 0.457 μm | Mean change in mean thickness: RPEDC, nasal subfield [4]: 0.739 μm | Mean change in mean thickness: RPEDC, superior subfield [4]: 1.739 μm | Mean change in mean thickness: RPEDC, temporal subfield [4]: 0.870 μm | Mean change in total volume: Inner retina, central subfield [4]: 0.001 mm^3 | Mean change in total volume: Inner retina, inferior subfield [4]: 0.000 mm^3 | Mean change in total volume: Inner retina, nasal subfield [4]: −0.001 mm^3 | Mean change in total volume: Inner retina, superior subfield [4]: −0.005 mm^3 | Mean change in total volume: Inner retina, temporal subfield [4]: 0.000 mm^3 | Mean change in total volume: Outer retina, central subfield [4]: −0.003 mm^3 | Mean change in total volume: Outer retina, inferior subfield [4]: −0.004 mm^3 | Mean change in total volume: Outer retina, nasal subfield [4]: −0.002 mm^3 | Mean change in total volume: Outer retina, superior subfield [4]: −0.000 mm^3 | Mean change in total volume: Outer retina, temporal subfield [4]: −0.004 mm^3 | Mean change in total volume: Photoreceptor, central subfield [4]: −0.001 mm^3 | Mean change in total volume: Photoreceptor, inferior subfield [4]: −0.001 mm^3 | Mean change in total volume: Photoreceptor, nasal subfield [4]: −0.000 mm^3 | Mean change in total volume: Photoreceptor, superior subfield [4]: 0.000 mm^3 | Mean change in total volume: Photoreceptor, temporal subfield [4]: −0.000 mm^3 | Mean change in total volume: RPEDC, central subfield [4]: −0.001 mm^3 | Mean change in total volume: RPEDC, inferior subfield [4]: 0.001 mm^3 | Mean change in total volume: RPEDC, nasal subfield [4]: 0.001 mm^3 | Mean change in total volume: RPEDC, superior subfield [4]: 0.003 mm^3 | Mean change in total volume: RPEDC, temporal subfield [4]: 0.001 mm^3 | Change in EZ defect area, Difference [5]: 0.025 mm^2 | Mean change in mean thickness: Inner retina, central subfield, Difference [5]: 0.690 μm | Mean change in mean thickness: Inner retina, foveal center, Difference [5]: 15.404 μm | Mean change in mean thickness: Inner retina, inferior subfield, Difference [5]: −1.607 μm | Mean change in mean thickness: Inner retina, nasal subfield, Difference [5]: −0.949 μm | Mean change in mean thickness: Inner retina, superior subfield, Difference [5]: −4.188 μm | Mean change in mean thickness: Inner retina, temporal subfield, Difference [5]: 0.092 μm | Mean change in mean thickness: Outer retina, central subfield, Difference [5]: −3.812 μm | Mean change in mean thickness: Outer retina, foveal center, Difference [5]: −14.794 μm | Mean change in mean thickness: Outer retina, inferior subfield, Difference [5]: 0.460 μm | Mean change in mean thickness: Outer retina, nasal subfield, Difference [5]: 1.388 μm | Mean change in mean thickness: Outer retina, superior subfield, Difference [5]: 0.768 μm | Mean change in mean thickness: Outer retina, temporal subfield, Difference [5]: −1.158 μm | Mean change in mean thickness: Photoreceptor, central subfield, Difference [5]: −2.545 μm | Mean change in mean thickness: Photoreceptor, foveal center, Difference [5]: 1.342 μm | Mean change in mean thickness: Photoreceptor, inferior subfield, Difference [5]: −0.781 μm | Mean change in mean thickness: Photoreceptor, nasal subfield, Difference [5]: −0.379 μm | Mean change in mean thickness: Photoreceptor, superior subfield, Difference [5]: −0.161 μm | Mean change in mean thickness: Photoreceptor, temporal subfield, Difference [5]: −0.694 μm | Mean change in mean thickness: RPEDC, central subfield, Difference [5]: −0.167 μm | Mean change in mean thickness: RPEDC, foveal center, Difference [5]: −1.402 μm | Mean change in mean thickness: RPEDC, inferior subfield, Difference [5]: 1.623 μm | Mean change in mean thickness: RPEDC, nasal subfield, Difference [5]: −0.511 μm | Mean change in mean thickness: RPEDC, superior subfield, Difference [5]: 2.739 μm | Mean change in mean thickness: RPEDC, temporal subfield, Difference [5]: 2.536 μm | Mean change in total volume: Inner retina, central subfield, Difference [5]: 0.001 mm^3 | Mean change in total volume: Inner retina, inferior subfield, Difference [5]: −0.002 mm^3 | Mean change in total volume: Inner retina, nasal subfield, Difference [5]: −0.002 mm^3 | Mean change in total volume: Inner retina, superior subfield, Difference [5]: −0.007 mm^3 | Mean change in total volume: Inner retina, temporal subfield, Difference [5]: 0.000 mm^3 | Mean change in total volume: Outer retina, central subfield, Difference [5]: −0.003 mm^3 | Mean change in total volume: Outer retina, inferior subfield, Difference [5]: 0.001 mm^3 | Mean change in total volume: Outer retina, nasal subfield, Difference [5]: 0.002 mm^3 | Mean change in total volume: Outer retina, superior subfield, Difference [5]: 0.001 mm^3 | Mean change in total volume: Outer retina, temporal subfield, Difference [5]: −0.002 mm^3 | Mean change in total volume: Photoreceptor, central subfield, Difference [5]: −0.002 mm^3 | Mean change in total volume: Photoreceptor, inferior subfield, Difference [5]: −0.002 mm^3 | Mean change in total volume: Photoreceptor, nasal subfield, Difference [5]: −0.001 mm^3 | Mean change in total volume: Photoreceptor, superior subfield, Difference [5]: −0.000 mm^3 | Mean change in total volume: Photoreceptor, temporal subfield, Difference [5]: −0.001 mm^3 | Mean change in total volume: RPEDC, central subfield, Difference [5]: −0.000 mm^3 | Mean change in total volume: RPEDC, inferior subfield, Difference [5]: 0.002 mm^3 | Mean change in total volume: RPEDC, nasal subfield, Difference [5]: −0.001 mm^3 | Mean change in total volume: RPEDC, superior subfield, Difference [5]: 0.005 mm^3 | Mean change in total volume: RPEDC, temporal subfield, Difference [5]: 0.004 mm^3
